Columns and labels:
Format in all cases: cell-based
[1] = test system: cells from abdominal ascites of ovarian patient NACT14; experiment: Sensitivity of patient-derived ovarian cells in a microfluidic device; conditions: 10 μM, ~800 cells in 1 microliter, imaging 48 hours after drug
Experimental: Heterogeneous cell population isolated from abdominal ascites of ovarian patient NACT14. A limited number of cells (˜800 cells) in a volume of 1 microliter were tested for sensitivity of JSI124. On day 0, the cells were seeded in the microfluidic device. On day 1, drug was administered, together with a blue dye (FIG. 29-FIG. 31).
Hoechst confocal imaging (stained nuclei) was used to observe cells forty eight (48) hours after the drug was added (FIG. 32-FIG. 35).

[2] = test system: OVACR8; experiment: Screen of 14 JAK/STAT pathway inhibitors, CellTiterGlo viability, 2D and 3D cultures; conditions: OVACR8, 1 μM, 2D and 3D culture
Experimental: (§1) FIG. 6A-FIG. 6G are a series of graphs and images depicting the impact of JAK/STAT-inhibition on spheroid formation, invasion and killing ex vivo and in vitro. FIG. 6A a histogram (FIG. 11B), showing drug screening with 14 compounds (at 1 μM) inhibiting the JAK/STAT pathway in OVACR4. Relative viability compared to DMSO control measured by CTG. […] The same library was screened in 2D-cultures of OVACR4 (FIG. 11A), and 2D-cultures of OVACR8 (FIG. 11C) and 3D-cultures of OVACR8 (FIG. 11D). FIG. 6B is a series of plots showing drug sensitivity testing using the GILA assay in platinum-resistant ex vivo spheroid cultures of patients DF3291 and DF3266, The X-axis indicates the log μM concentration of drugs indicated in the legend, Y-axis indicates the percentage of luminescence signal as indicator for viability relatively to DMSO treated cells. In both patients, half maximal effective concentration (EC50) were ˜100 nM and ˜10 nM, respectively, while other drugs routinely used for the treatment of (platinum-resistant) ovarian cancer had EC50>10 μM. […] 20 spheroids clusters were analyzed for each iteration. […]
FIG. 11A-FIG. 11E are a series of histograms of OVACR4 and OVACR8 ovarian cancer cell lines grown in 2D and 3D cultures and treated with 14 JAK/STAT pathway inhibitors at 1 μM. Vability of the cells was determined using the CellTiterGlo assay. […]

[3] = test system: ex vivo patient-derived ovarian cancer spheroids; experiment: Microscopic analysis of patient-derived spheroids/cells after drug treatment
Experimental: as §1, with “μM. FIG. 6C is a series of images of microscopic analysis of spheroids with different drug treatments to highlight the morphologic changes during therapy with drugs listed. Inhibition of JAK/STAT pathway disrupts ex vivo spheroid cultures.” for “μM.”

`CC(C)(O)/C=C/C(=O)[C@](C)(O)[C@H]1[C@@H](O)C[C@@]2(C)[C@@H]3CC=C4[C@H](C=C(O)C(=O)C4(C)C)[C@]3(C)C(=O)C[C@]12C` [JSI-124, cucurbitacin I] was tested, and the “Effectiveness against patient-derived ovarian cells” value [1] was “Effective”, the “Viability (CellTiterGlo), cell killing” value [2] was “most effective compound leading to cell killing” and the “Morphology of ex-vivo patient-derived ovarian cells after treatment” value ([3]; FIG. 36) was “massive elimination of tumor cells”. The “Spheroid morphology / integrity” value ([3]; platinum-resistant ex vivo spheroids) was “disintegration of the solid 3D spheroid structure”.

From US11963966B2, “Compositions and methods for treating ovarian tumors” (Dana-Farber Cancer Institute, Inc., priority 2017, dated 2024)
